± gives the uncertainty stated by the source.
Assay: xn = mol fraction of the nth substance listed

C=C(C)C(=O)OCCCCCCC + C1CCCCC1
viscosity [mPa·s], 101 kPa
Conditions	x1 = 0.002	x1 = 0.005	x1 = 0.01	x1 = 0.02
303 K	0.8392 ± 0.0085	0.8401 ± 0.0085	0.8252 ± 0.0082	0.8456 ± 0.0087
313 K	0.6991 ± 0.0056	0.7083 ± 0.0057	0.7012 ± 0.0055	0.7219 ± 0.006
323 K	0.6114 ± 0.004	0.6127 ± 0.004	0.6159 ± 0.004	0.6244 ± 0.0043

CCCCCCCCCCCCCCCCCC(=O)OC + C1CCCCC1
viscosity [mPa·s], 101 kPa
Conditions	x1 = 0.05	x1 = 0.1	x1 = 0.15	x1 = 0.2	x1 = 0.25	x1 = 0.3
298 K	1.22 ± 0.03	1.46 ± 0.03	1.73 ± 0.04	2.03 ± 0.04	2.33 ± 0.05	–
303 K	1.14 ± 0.02	1.35 ± 0.03	1.58 ± 0.03	1.86 ± 0.04	2.12 ± 0.04	2.45 ± 0.05
308 K	1.06 ± 0.02	1.25 ± 0.03	1.46 ± 0.03	1.71 ± 0.04	1.95 ± 0.04	2.2 ± 0.05
313 K	0.99 ± 0.02	1.16 ± 0.02	1.34 ± 0.03	1.58 ± 0.03	1.78 ± 0.04	2.02 ± 0.04

CCCCCCCCCCCCO + C1CCCCC1
303.15 K, 101.33 kPa
Conditions	viscosity [mPa·s]
x1 = 0.0858	1.109 ± 0.014
x1 = 0.1621	1.502 ± 0.018
x1 = 0.305	2.569 ± 0.029
x1 = 0.405	3.522 ± 0.04
x1 = 0.506	4.63 ± 0.051
x1 = 0.5985	5.781 ± 0.062
x1 = 0.6982	7.191 ± 0.074
x1 = 0.7746	8.412 ± 0.084
x1 = 0.862	9.989 ± 0.098

CCCCCCCCN + C1CCCCC1
303.15 K, 101 kPa
Conditions	viscosity [mPa·s]
x2 = 0.0971	1.138 ± 0.023
x2 = 0.1959	1.096 ± 0.022
x2 = 0.2997	1.036 ± 0.021
x2 = 0.401	0.97 ± 0.02
x2 = 0.497	0.952 ± 0.019
x2 = 0.5993	0.913 ± 0.018
x2 = 0.6975	0.863 ± 0.017
x2 = 0.7993	0.82 ± 0.017
x2 = 0.896	0.81 ± 0.016

Cc1ccc(C)cc1 + C1CCCCC1
101 kPa
Conditions	viscosity [mPa·s]
303 K, x1 = 0.1025	0.7341 ± 0.0052
303 K, x1 = 0.2016	0.6783 ± 0.0049
303 K, x1 = 0.2982	0.6363 ± 0.0047
303 K, x1 = 0.402	0.6131 ± 0.0046
303 K, x1 = 0.4944	0.5946 ± 0.0046
303 K, x1 = 0.5992	0.5858 ± 0.0046
303 K, x1 = 0.7997	0.5735 ± 0.0047
303 K, x1 = 0.8951	0.5721 ± 0.0047
303.15 K, x2 = 0.1016	0.5673 ± 0.0041
303.15 K, x2 = 0.1997	0.572 ± 0.0041
303.15 K, x2 = 0.2851	0.5782 ± 0.0041
303.15 K, x2 = 0.3934	0.591 ± 0.0042
303.15 K, x2 = 0.4966	0.611 ± 0.0042
303.15 K, x2 = 0.5961	0.6362 ± 0.0044
303.15 K, x2 = 0.6976	0.6682 ± 0.0045
303.15 K, x2 = 0.7954	0.7086 ± 0.0047
303.15 K, x2 = 0.8986	0.763 ± 0.0049
313 K, x1 = 0.1025	0.6343 ± 0.0046
313 K, x1 = 0.2016	0.5965 ± 0.0044
313 K, x1 = 0.2982	0.5693 ± 0.0043
313 K, x1 = 0.402	0.5417 ± 0.0042
313 K, x1 = 0.4944	0.5288 ± 0.0041
313 K, x1 = 0.5992	0.5165 ± 0.0041
313 K, x1 = 0.6952	0.5142 ± 0.0042
313 K, x1 = 0.7997	0.5159 ± 0.0043
323 K, x1 = 0.1025	0.54 ± 0.004
323 K, x1 = 0.2016	0.5237 ± 0.0039
323 K, x1 = 0.2982	0.4976 ± 0.0038
323 K, x1 = 0.402	0.4831 ± 0.0038
323 K, x1 = 0.4944	0.4765 ± 0.0038
323 K, x1 = 0.6952	0.462 ± 0.0038
323 K, x1 = 0.7997	0.4612 ± 0.0039
323 K, x1 = 0.8951	0.4608 ± 0.0039

Cc1ccc(C)cc1 + C1CCOC1
303.15 K, 101.33 kPa
Conditions	viscosity [mPa·s]
x2 = 0.1057	0.564 ± 0.005
x2 = 0.2037	0.557 ± 0.005
x2 = 0.2809	0.552 ± 0.005
x2 = 0.4052	0.544 ± 0.005
x2 = 0.5256	0.53 ± 0.005
x2 = 0.6045	0.518 ± 0.005
x2 = 0.7062	0.501 ± 0.005
x2 = 0.8021	0.485 ± 0.005
x2 = 0.9001	0.462 ± 0.004

[Cl-].[Cl-].[Cl-].[Cl-].[Ge+4] + C1COCCO1
viscosity [mPa·s], 101 kPa
Conditions	x2 = 0.1519	x2 = 0.3148	x2 = 0.5071	x2 = 0.6631	x2 = 0.8814	x2 = 0.9218
298.15 K	0.626 ± 0.016	0.67 ± 0.017	0.745 ± 0.019	0.837 ± 0.021	0.978 ± 0.025	1.087 ± 0.027
313.15 K	0.539 ± 0.014	0.57 ± 0.014	0.627 ± 0.016	0.687 ± 0.017	0.784 ± 0.02	0.856 ± 0.022

CCCCCCCCCCCCO + C=CC(=O)OC
viscosity [mPa·s], 101.3 kPa
Conditions	x2 = 0.1127	x2 = 0.3078	x2 = 0.3842	x2 = 0.5147	x2 = 0.6206	x2 = 0.7884	x2 = 0.8506	x2 = 0.9093	x2 = 0.9554	x2 = 0.9794
298.15 K	11.57 ± 0.42	5.722 ± 0.24	4.4 ± 0.19	2.703 ± 0.12	1.891 ± 0.088	0.992 ± 0.049	0.785 ± 0.04	0.629 ± 0.034	0.53 ± 0.029	0.484 ± 0.027
308.15 K	8.309 ± 0.32	4.391 ± 0.19	3.385 ± 0.15	2.157 ± 0.099	1.515 ± 0.072	0.833 ± 0.042	0.668 ± 0.035	0.549 ± 0.03	0.473 ± 0.027	0.438 ± 0.025

CCCCCCCCCCCCO + C=CC(=O)OCC
viscosity [mPa·s], 101.3 kPa
Conditions	x2 = 0.0932	x2 = 0.2669	x2 = 0.3351	x2 = 0.4687	x2 = 0.5769	x2 = 0.7542	x2 = 0.8231	x2 = 0.8907	x2 = 0.9643	x2 = 0.9743
298.15 K	11.28 ± 0.82	6.404 ± 0.52	5.497 ± 0.47	3.183 ± 0.28	2.253 ± 0.21	1.192 ± 0.12	0.963 ± 0.096	0.74 ± 0.076	0.584 ± 0.063	0.565 ± 0.061
308.15 K	10.08 ± 0.75	4.772 ± 0.42	4.182 ± 0.37	2.515 ± 0.23	1.748 ± 0.16	0.997 ± 0.099	0.792 ± 0.081	0.633 ± 0.067	0.512 ± 0.057	0.497 ± 0.055

CCCCCCCCCCCCO + C=CC(=O)OCCCC
viscosity [mPa·s], 101.3 kPa
Conditions	x2 = 0.075	x2 = 0.2149	x2 = 0.2782	x2 = 0.3968	x2 = 0.5042	x2 = 0.7015	x2 = 0.7849	x2 = 0.8614	x2 = 0.9327	x2 = 0.9651
298.15 K	12.42 ± 0.9	7.842 ± 0.61	6.982 ± 0.56	4.373 ± 0.38	3.244 ± 0.29	1.769 ± 0.17	1.376 ± 0.13	1.197 ± 0.12	0.983 ± 0.097	0.858 ± 0.087
308.15 K	8.748 ± 0.67	5.789 ± 0.48	4.807 ± 0.42	3.38 ± 0.3	2.459 ± 0.22	1.409 ± 0.13	1.135 ± 0.11	1.004 ± 0.099	0.86 ± 0.087	0.732 ± 0.076

COC(=O)OCC(F)(F)F + CC1COC(=O)O1
298.15 K, 100 kPa
Conditions	viscosity [mPa·s]
x2 = 0.0999	1.13 ± 0.024
x2 = 0.2012	1.26 ± 0.027
x2 = 0.3	1.38 ± 0.03
x2 = 0.3991	1.51 ± 0.033
x2 = 0.5012	1.66 ± 0.036
x2 = 0.6016	1.82 ± 0.039
x2 = 0.699	2 ± 0.043
x2 = 0.7994	2.18 ± 0.047
x2 = 0.9002	2.36 ± 0.051

Cc1ccc(C)cc1 + CC#N
308.15 K, 101 kPa
Conditions	viscosity [mPa·s]
x1 = 0.1008	0.3403 ± 0.0081
x1 = 0.2001	0.3636 ± 0.0085
x1 = 0.2981	0.3915 ± 0.009
x1 = 0.3964	0.4147 ± 0.0094
x1 = 0.4985	0.4387 ± 0.0098
x1 = 0.5923	0.4603 ± 0.01
x1 = 0.6937	0.4799 ± 0.011
x1 = 0.7907	0.4989 ± 0.011
x1 = 0.9051	0.5199 ± 0.011

CC(=O)OCC[N+](C)(C)C.[Cl-] + CC(=O)CCC(=O)O
101 kPa, x2 = 0.75
Conditions	viscosity [mPa·s]
293.15 K	164.5 ± 7.5
303.15 K	85.88 ± 3.7
313.15 K	46.75 ± 2
323.15 K	31.58 ± 1.3

c1ccc(Nc2ccccc2)cc1 + CC(=O)O
323.15 K, 101.33 kPa
Conditions	viscosity [mPa·s]
x1 = 0.1031	1.083 ± 0.0088
x1 = 0.2023	1.242 ± 0.01
x1 = 0.4039	2.267 ± 0.02
x1 = 0.5079	2.799 ± 0.026
x1 = 0.6113	3.35 ± 0.033
x1 = 0.6724	3.714 ± 0.037
x1 = 0.7895	4.486 ± 0.049

Fc1ccccc1 + CC(=O)OCCC(C)C
viscosity [mPa·s], 101 kPa
Conditions	x2 = 0.0669	x2 = 0.1372	x2 = 0.2148	x2 = 0.2975	x2 = 0.3897	x2 = 0.4843	x2 = 0.5939	x2 = 0.713	x2 = 0.8486
303.15 K	0.541 ± 0.011	0.565 ± 0.011	0.591 ± 0.011	0.613 ± 0.011	0.637 ± 0.011	0.661 ± 0.011	0.682 ± 0.011	0.706 ± 0.011	0.727 ± 0.011
313.15 K	0.48 ± 0.011	0.501 ± 0.011	0.524 ± 0.011	0.543 ± 0.011	0.561 ± 0.011	0.579 ± 0.011	0.597 ± 0.011	0.613 ± 0.011	0.629 ± 0.011
